Test results published in patent US20220089593A1, “PDE9 INHIBITOR AND USE THEREOF” (TRANSTHERA SCIENCES (NANJING), INC., priority 2019, published 2022).

Target: T1, PDE9A2 enzyme (Homo sapiens, UniProt O76083)
T1 construct: purchased BPS 60090
Assay: PDE9 enzymatic evaluation
Type: biochemical
Conditions: PDE9A2 enzyme (BPS), fluorescence reading 480 nm/535 nm, room temperature
Method: Preparation of the compounds: Compounds were formulated into 10 mM compound stock solution in DMSO for long term storage.
Subsequently, 10 μL of the substrate mixture was added, and after centrifugation at 1000 rpm for 1 min, the resulting mixture was incubated at room temperature with oscillating for 30 min. Finally, stop solution was added to end the reaction, and the resulting reaction system was incubated at room temperature with oscillating for 60 min. In the maximum reading well (Max), the compound was replaced by solvent; in the minimum reading well (Min), the compound and the enzyme solution were replaced by solvent.
Detection: the fluorescence readings (F) at 480 nm/535 nm were detected using a microplate reader.
Calculation: The inhibition rate was calculated according to the following formula and IC50 was fitted using GraphPad Prism 5.0:

T1 sequence (O76083 1-533 isoform O76083-2): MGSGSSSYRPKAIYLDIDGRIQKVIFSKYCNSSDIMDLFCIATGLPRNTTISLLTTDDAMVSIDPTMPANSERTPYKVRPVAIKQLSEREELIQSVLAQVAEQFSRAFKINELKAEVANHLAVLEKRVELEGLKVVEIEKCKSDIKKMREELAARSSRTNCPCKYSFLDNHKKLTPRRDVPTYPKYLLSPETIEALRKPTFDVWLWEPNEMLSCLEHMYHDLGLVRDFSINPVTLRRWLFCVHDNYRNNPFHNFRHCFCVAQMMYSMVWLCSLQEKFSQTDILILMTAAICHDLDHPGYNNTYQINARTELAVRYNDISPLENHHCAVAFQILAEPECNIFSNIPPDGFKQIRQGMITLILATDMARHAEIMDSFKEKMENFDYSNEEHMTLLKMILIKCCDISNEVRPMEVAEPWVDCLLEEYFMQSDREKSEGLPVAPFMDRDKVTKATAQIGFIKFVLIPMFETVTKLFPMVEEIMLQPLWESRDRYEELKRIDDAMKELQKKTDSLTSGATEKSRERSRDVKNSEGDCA

| Compound | IC50 |
| --- | --- |
| CCc1ccc2[nH]c(=O)c(C#N)c(N3CCC(C)(OC)CC3)c2n1 [Compound 167, 6-ethyl-4-(4-methoxy-4-methylpiperidin-1-yl)-2-oxo-1,2-dihydro-1,5-naphthyridine-3-carbonitrile] | 0.011 µM |
| COC1(C)CCN(c2c(C#N)c(=O)[nH]c3cnc(CO)cc23)CC1 [Compound 177, 6-(hydroxymethyl)-4-(4-methoxy-4-methylpiperidin-1-yl)-2-oxo-1,2-dihydro-1,7-naphthyridine-3-carbonitrile] | 0.015 µM |
| COC1(C)CCN(c2c(C#N)c(=O)[nH]c3cccnc23)CC1 [Compound 165, 4-(4-methoxy-4-methylpiperidin-1-yl)-2-oxo-1,2-dihydro-1,5-naphthyridine-3-carbonitrile] | 0.024 µM |
| COC1(C)CCN(c2c(C#N)c(=O)[nH]c3ccc(C)nc23)CC1 [Compound 166, 4-(4-methoxy-4-methylpiperidin-1-yl)-6-methyl-2-oxo-1,2-dihydro-1,5-naphthyridine-3-carbonitrile] | 0.019 µM |
| COC1(C)CCN(c2c(C#N)c(=O)[nH]c3cnc(C(C)C)cc23)CC1 [Compound 163, 6-isopropyl-4-(4-methoxy-4-methylpiperidin-1-yl)-2-oxo-1,2-dihydro-1,7-naphthyridine-3-carbonitrile] | 0.05 µM |
| CC1(C)CCN(c2c(C#N)c(=O)[nH]c3ccccc23)CC1 [Compound I-11, reference compound] | 0.07 µM |
| CC(O)c1cc2c(N3CCC(C)(O)CC3)c(C#N)c(=O)[nH]c2cn1 (stereo not shown) [Compound 194, 4-(4-hydroxy-4-methylpiperidin-1-yl)-6-(1-hydroxyethyl)-2-oxo-1,2-dihydro-1,7-naphthyridine-3-carbonitrile] | 0.037 µM |

Tested on: not listed separately
Assay: Dog liver microsomal stability
Type: in vitro ADME
Conditions: dog liver microsomes 0.5 mg protein/mL, compound 1 μM, β-NADPH 1 mM, 37° C.
Method: Test samples: the compounds disclosed herein and the compound 1-8 of patent WO2017019723A1 (prepared by referring to the examples for synthesis in WO2017019723A1) having the following structural formula: […]
An appropriate amount of the compound was precisely weighed out and dissolved in DMSO to prepare a 5.0 mM stock solution. The 5.0 mM stock solution was diluted to 1.0 mM with DMSO, and then diluted with water to 10 μM compound working solution for later use (DMSO content in the reaction system: 0.1% v/v).
Vd=1/protein content in liver microsomes

| Compound | half-life at 1 μM | microsomal CLint at 1 μM |
| --- | --- | --- |
| CCc1ccc2[nH]c(=O)c(C#N)c(N3CCC(C)(OC)CC3)c2n1 [Compound 167, 6-ethyl-4-(4-methoxy-4-methylpiperidin-1-yl)-2-oxo-1,2-dihydro-1,5-naphthyridine-3-carbonitrile] | 2.32 h | 10 µL/min/mg |
| COC1(C)CCN(c2c(C#N)c(=O)[nH]c3ccc(C)nc23)CC1 [Compound 166, 4-(4-methoxy-4-methylpiperidin-1-yl)-6-methyl-2-oxo-1,2-dihydro-1,5-naphthyridine-3-carbonitrile] | 6.8 h | 3.4 µL/min/mg |
| COC1(C)CCN(c2c(C#N)c(=O)[nH]c3cnc([C@H](C)O)cc23)CC1 (single isomer, unassigned) [Compound B, 6-(1-hydroxyethyl)-4-(4-methoxy-4-methylpiperidin-1-yl)-2-oxo-1,2-dihydro-1,7-naphthyridine-3-carbonitrile] | 14.4 h | 1.6 µL/min/mg |
| COC1(C)CCN(c2c(C#N)c(=O)[nH]c3cnc(C(C)OP(=O)([O-])[O-])cc23)CC1.[Na+].[Na+] (stereo not shown) [Compound 204] | 8.25 h | 2.8 µL/min/mg |
| N#Cc1c(N2CCCCCC2)c2ccccc2[nH]c1=O [Compound I-8, reference compound] | 0.2 h | 116 µL/min/mg |

Target: human PDE9 (Homo sapiens, UniProt O76083)
Sequence (O76083 whole entry): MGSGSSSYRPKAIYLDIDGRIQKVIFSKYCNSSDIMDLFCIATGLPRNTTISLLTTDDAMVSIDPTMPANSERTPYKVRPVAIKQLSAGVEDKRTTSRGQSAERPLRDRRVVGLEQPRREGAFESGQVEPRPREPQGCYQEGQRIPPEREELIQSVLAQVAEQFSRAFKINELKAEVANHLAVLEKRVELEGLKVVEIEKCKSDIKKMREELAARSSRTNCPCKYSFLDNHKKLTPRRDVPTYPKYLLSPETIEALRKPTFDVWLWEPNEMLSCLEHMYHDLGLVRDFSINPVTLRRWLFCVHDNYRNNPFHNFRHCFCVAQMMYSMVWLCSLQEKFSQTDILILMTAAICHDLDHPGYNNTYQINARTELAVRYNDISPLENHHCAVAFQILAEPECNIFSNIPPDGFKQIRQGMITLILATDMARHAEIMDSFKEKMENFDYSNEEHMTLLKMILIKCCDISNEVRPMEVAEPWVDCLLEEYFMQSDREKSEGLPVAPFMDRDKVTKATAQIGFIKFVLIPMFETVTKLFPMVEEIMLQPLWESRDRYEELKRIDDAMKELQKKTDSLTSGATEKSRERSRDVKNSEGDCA
Assay: not given
Conditions: background statement; cited from earlier work

| Compound | inhibitory activity against PDE9 |
| --- | --- |
| CCOC(=O)C1=C[C@]2(CC)CCCN3CCc4c(n1c1ccccc41)[C@@H]32 [vinpocetine] | no inhibitory activity or low inhibitory activity |
| CC(=O)Nc1ccc(-c2c[nH]c(=O)cn2)cc1 [SKF94120] | no inhibitory activity or low inhibitory activity |
| COc1ccc(C2CNC(=O)C2)cc1OC1CCCC1 (stereo not shown) [rolipram] | no inhibitory activity or low inhibitory activity |
| CC(C)Cn1c(=O)n(C)c(=O)c2[nH]cnc21 [IBMX] | no inhibitory activity or low inhibitory activity |
| OCCN(CCO)c1nc(N2CCCCC2)c2nc(N(CCO)CCO)nc(N3CCCCC3)c2n1 [dipyridamole] | no inhibitory activity or low inhibitory activity |
